Columns and labels:
[1] = biological target: cloned human P2Y1 receptors (Homo sapiens (Human), UniProt P47900); assay: Binding Assay B: Scintillation Proximity Assay (SPA) for P2Y1 binding; details: SPA, [33P] 2MeS-ADP displacement; read-out: P2Y1 Ki (nM) using binding assay B
In short: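 Scintillation proximity readout of 0.3 nM [^33P] tracer displacement from receptor membranes (~15 fmol receptor, 1.7 μg protein). Binding ran 1 h at room temperature to completion; plates were then centrifuged and aqueous phase aspirated before counting.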

[2] = system: human platelet rich plasma (PRP); assay: ADP induced platelet aggregation assay; details: Homo sapiens, Platelet, read-out: PA IC50 (μM) @ 10 μM ADP, platelet aggregation induced by 10 μM ADP, human PRP

Sequence of cloned human P2Y1 receptors (P47900 whole entry): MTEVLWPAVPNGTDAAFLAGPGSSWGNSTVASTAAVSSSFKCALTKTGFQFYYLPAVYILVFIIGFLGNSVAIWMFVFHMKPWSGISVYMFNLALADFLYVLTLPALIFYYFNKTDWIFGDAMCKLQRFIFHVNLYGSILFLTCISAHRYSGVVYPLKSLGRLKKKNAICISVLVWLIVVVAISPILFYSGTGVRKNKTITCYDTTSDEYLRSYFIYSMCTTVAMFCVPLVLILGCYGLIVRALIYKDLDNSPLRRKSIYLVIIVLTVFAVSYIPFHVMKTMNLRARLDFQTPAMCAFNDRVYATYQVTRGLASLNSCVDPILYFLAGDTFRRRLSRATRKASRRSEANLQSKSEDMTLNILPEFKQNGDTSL

SMILES: CC(C)(C)CN1CCC2(CC1)CN(c1ccccc1NC(=O)Nc1nc3ccc(Cl)cc3s1)c1c(O)ccc(Cl)c12 [Example 38, 1-(2-(4-Chloro-7-hydroxy-1′-neopentylspiro[indoline-3,4′-piperidine]-1-yl)phenyl)-3-(6-chlorobenzo[d]thiazol-2-yl)urea]
- Ki [1]: 10 nM
- IC50 [2]: 0.4 µM

SMILES: CC(C)(C)CN1CCC2(CC1)CN(c1ccccc1NC(=O)Nc1nc3ccc(Cl)nc3s1)c1c(O)ccc(-c3nc4ccc(F)cc4s3)c12 [Example 144, 1-(5-Chlorothiazolo[5,4-b]pyridin-2-yl)-3-(2-(4-(6-fluorobenzo[d]thiazol-2-yl)-7-hydroxy-1′-neopentylspiro[indoline-3,4′-piperidin]-1-yl)phenyl)urea]
- Ki [1]: 13 nM
- IC50 [2]: 0.7 µM

SMILES: CC(C)(C)CN1CCC2(CC1)CN(c1ccccc1NC(=O)Nc1ccc(OC(F)(F)F)cc1)c1c(O)ccc(F)c12 [Example 6, 1-(2-(4-Fluoro-7-hydroxy-1′-neopentylspiro[indoline-3,4′-piperidine]-1-yl)phenyl)-3-(4-(trifluoromethoxy)phenyl)urea]
- Ki [1]: 4.4 nM
- IC50 [2]: 0.9 µM

SMILES: CC(C)(C)CN1CCC2(CC1)CN(c1ccccc1NC(=O)Nc1ccc(OC(F)(F)F)cc1)c1c(O)cc(F)c(-c3nc4ccc(F)cc4s3)c12 [Example 147, 1-(2-(5-Fluoro-4-(6-fluorobenzo[d]thiazol-2-yl)-7-hydroxy-1′-neopentylspiro[indoline-3,4′-piperidin]-1-yl)phenyl)-3-(4-(trifluoromethoxy)phenyl)urea]
- Ki [1]: 14.8 nM
- IC50 [2]: 0.5 µM

SMILES: CC(C)(C)CN1CCC2(CC1)CN(c1ccccc1NC(=O)Nc1nc3ccc(Cl)nc3s1)c1c(O)cc(F)c(-c3ccc(F)cc3)c12 [Example 152]
- Ki [1]: 10.2 nM
- IC50 [2]: 0.2 µM

SMILES: Cc1ccc2nc(NC(=O)Nc3ccccc3N3CC4(CCN(CC(C)(C)C)CC4)c4c(Cl)c(F)cc(O)c43)sc2c1 [Example 97, 1-(2-(4-Chloro-5-fluoro-7-hydroxy-1′-neopentylspiro [indoline-3,4′-piperidine]-1-yl)phenyl)-3-(6-melhylbenzo [d]thiazol-2-yl)urea]
- Ki [1]: 11.5 nM
- IC50 [2]: 0.7 µM

SMILES: CC(C)(C)CN1CCC2(CC1)CN(c1ncccc1NC(=O)Nc1ccc(OC(F)(F)F)cc1)c1c(O)ccc(C(F)(F)F)c12 [Example 12, 1-(2-(7-Hydroxy-1′-neopentyl-4-(trifluoromethyl)spiro[indoline-3,4′-piperidine]-1-yl)pyridin-3-yl)-3-(4-(trifluoromethoxy)phenyl)urea]
- Ki [1]: 5.6 nM
- IC50 [2]: 1.4 µM

SMILES: CC(C)(C)CN1CCC2(CC1)CN(c1ccccc1NC(=O)Nc1nc3ccc(F)cc3s1)c1c(O)cc(F)c(Cl)c12 [Example 93, 1-(2-(4-Chloro-5-fluoro-7-hydroxy-1′-neopentylspiro [indoline-3,4′-piperidine]-1-yl)phenyl)-3-(6-fluorobenzo[d]thiazol-2-yl)urea]
- Ki [1]: 13.5 nM
- IC50 [2]: 0.5 µM

SMILES: CC(C)(C)CN1CCC2(CC1)CN(c1ccccc1NC(=O)Nc1csc(Cl)n1)c1c(O)ccc(-c3nc4cc(F)ccc4s3)c12 [Example 112, 1-(2-Chlorothiazol-4-yl)-3-(2-(4-(5-fluorobenzo[d]thiazol-2-yl)-7-hydroxy-1′-neopentylspiro[indoline-3,4′-piperidin]-1-yl)phenyl)urea]
- Ki [1]: 9.5 nM
- IC50 [2]: 0.2 µM

SMILES: CC(C)(C)CN1CCC2(CC1)CN(c1ccccc1NC(=O)Nc1csc(C(F)(F)F)n1)c1c(O)ccc(-c3nc4ccc(F)cc4s3)c12 [Example 132, 1-(2-(4-(6-Fluorobenzo[d]thiazol-2-yl)-7-hydroxy-1′-neopentylspiro[indoline-3,4′-piperidin]-1-yl)phenyl)-3-(2-(trifluoromethyl)thiazol-4-yl)urea]
- Ki [1]: 12.4 nM
- IC50 [2]: 0.7 µM

SMILES: CC(C)(C)CN1CCC2(CC1)CN(c1ccccc1NC(=O)Nc1ccc(OC(F)(F)F)cc1)c1c(O)ccc(-c3nc4cccc(Cl)c4s3)c12 [Example 123, 1-(2-(4-(7-Chlorobenzo[d]thiazol-2-yl)-7-hydroxy-1′-neopentylspiro[indoline-3,4′-piperidin]-1-yl)phenyl)-3-(4-(trifluoromethoxy)phenyl)urea]
- Ki [1]: 32.5 nM
- IC50 [2]: 0.6 µM

SMILES: Cc1ccc2nc(NC(=O)Nc3ccccc3N3CC4(CCN(CC(C)(C)C)CC4)c4c(Cl)ccc(O)c43)sc2c1 [Example 40, 1-(2-(4-Chloro-7-hydroxy-1′-neopentylspiro[indoline-3,4′-piperidine]-1-yl)phenyl)-3-(6-methylbenzo[d]thiazol-2-yl)urea]
- Ki [1]: 5.6 nM
- IC50 [2]: 0.5 µM

SMILES: CC(C)(C)CN1CCC2(CC1)CN(c1ccccc1NC(=O)Nc1ccc(C(F)(F)F)cc1)c1c(O)ccc(C(F)(F)F)c12 [Example 22, 1-(2-(7-Hydorxy-1′-neopentyl-4-(trifluoromethyl)spiro[indoline-3,4′-piperidine]-1-yl)phenyl)-3-(4-(trifluoromethyl)phenyl)urea]
- Ki [1]: 4.4 nM
- IC50 [2]: 0.2 µM

SMILES: CC(C)(C)CN1CCC2(CC1)CN(c1ccccc1NC(=O)Nc1nc3ccc(F)cc3s1)c1c(O)cc(F)c(-c3ccc(C(F)(F)F)nc3)c12 [Example 161, 1-(2-(5-Fluoro-7-hydroxy-1′-neopentyl-4-(6-(trifluoromethyl)pyridin-3-yl)spiro[indoline-3,4′-piperidin]-1-yl)phenyl)-3-(6-fluorobenzo[d]thiazol-2-yl)urea]
- Ki [1]: 41.1 nM
- IC50 [2]: 0.2 µM

SMILES: COc1ccc2nc(-c3ccc(O)c4c3C3(CCN(CC(C)(C)C)CC3)CN4c3ccccc3NC(=O)Nc3nc4ccc(Cl)cc4s3)sc2c1 [Example 131, 1-(6-Chlorobenzo[d]thiazol-2-yl)-3-(2-(7-hydroxy-4-(6-methoxybenzo[d]thiazol-2-yl)-1′-neopentylspiro[indoline-3,4′-piperidin]-1-yl)phenyl)urea]
- Ki [1]: 22.5 nM
- IC50 [2]: 1 µM

SMILES: CC(C)(C)CN1CCC2(CC1)CN(c1ccccc1NC(=O)Nc1nc3ccc(Cl)cc3s1)c1c(O)ccc(C(F)(F)F)c12 [Example 21, 1-(6-Chlorobenzo[d]thiazol-2-yl)-3-(2-(7-hydroxy-1′-neopentyl-4-(trifluoromethyl)spiro[indoline-3,4′-piperidine]-1-yl)phenyl)urea]
- Ki [1]: 30.9 nM
- IC50 [2]: 0.4 µM

SMILES: CC(C)(C)CN1CCC2(CC1)CN(c1ccccc1NC(=O)Nc1nc3ccc(Cl)nc3s1)c1c(O)ccc(C(F)(F)F)c12 [Example 175, 1-(5-Chlorothiazolo[5,4-b]pyridin-2-yl)-3-(2-(7-hydroxy-1′-neopentyl-4-(trifluoromethyl)spiro[indoline-3,4′-piperidine]-1-yl)phenyl)urea]
- Ki [1]: 13.4 nM
- IC50 [2]: 0.5 µM

SMILES: CC(C)(C)CN1CCC2(CC1)CN(c1ccccc1NC(=O)Nc1nc3ccc(Cl)cc3s1)c1c(O)cc(F)c(F)c12 [Example 96, l-(6-Chlorobenzo[d]thiazol-2-yl)-3-(2-(4,5-difluoro-7-hydroxy-1′-neopentylspiro[indoline-3,4′-piperidine]-1-yl)phenyl)urea]
- Ki [1]: 25.8 nM
- IC50 [2]: 0.3 µM

SMILES: CC(C)CN1CCC2(CC1)CN(c1ccccc1NC(=O)Nc1nc3ccc(F)cc3s1)c1c(O)ccc(Cl)c12 [Example 4, 1-(2-(4-Chloro-7-hydroxy-1′-isobutylspiro[indoline-3,4′-piperidine]-1-yl)phenyl)-3-(6-fluorobenzo[d]thiazol-2-yl)urea]
- Ki [1]: 9.9 nM
- IC50 [2]: 0.4 µM

SMILES: CC(C)CN1CCC(c2ccc(NC(=O)Nc3ccccc3N3CC4(CCN(CC(C)(C)C)CC4)c4c(Cl)c(F)cc(O)c43)cc2)CC1 [Example 105, 1-(2-(4-Chloro-5-fluoro-7-hydroxy-1′-neopentylspiro [indoline-3,4′-piperidine]-1-yl)phenyl)-3-(4-(1-isobutylpiperidin-4-yl)phenyl)urea]
- Ki [1]: 12.7 nM
- IC50 [2]: 1.1 µM

SMILES: CC(C)(C)CN1CCC2(CC1)CN(c1ccccc1NC(=O)Nc1nc3ccc(F)cc3s1)c1c(O)ccc(-c3nc4cc(F)ccc4s3)c12 [Example 138, 1-(6-Cluorobenzo[d]thiazol-2-yl)-3-(2-(4-(5-fluorobenzo[d]thiazol-2-yl)-7-hydroxy-1′-neopentylspiro[indoline-3,4′-piperidin]-1-yl)phenyl)urea]
- Ki [1]: 24.6 nM
- IC50 [2]: 0.2 µM

SMILES: CC(C)(C)CN1CCC2(CC1)CN(c1ccccc1NC(=O)Nc1ccc(C(C)(C)C)cc1)c1c(O)cccc12 [Example 5, 1-(4-tert-Butylphenyl)-3-(2-(7-hydroxy-1′-neopentylspiro[indoline-3,4′-piperidine]-1-yl)phenyl)urea]
- Ki [1]: 8.3 nM
- IC50 [2]: 0.4 µM

SMILES: CN(C)S(=O)(=O)c1ccc(O)c2c1C1(CCN(CC(C)(C)C)CC1)CN2c1ccccc1NC(=O)Nc1ccc(OC(F)(F)F)cc1 [Example 89, 7-Hydroxy-N,N-dimethyl-1′-neopentyl-1-(2-(3-(4-(trifluoromethoxy)phenyl)ureido)phenyl)spiro[indoline-3,4′-piperidine]-4-sulfonamide]
- Ki [1]: 5.3 nM
- IC50 [2]: 0.4 µM

SMILES: CC(C)(C)CN1CCC2(CC1)CN(c1ccccc1NC(=O)Nc1csc(Cl)n1)c1c(O)ccc(-c3nc4c(Cl)cccc4s3)c12 [Example 118, 1-(2-(4-(4-Chlorobenzo[d]thiazol-2-yl)-7-hydroxy-1′-neopentylspiro[indoline-3,4′-piperidin]-1-yl)phenyl)-3-(2-chlorothiazol-4-yl)urea]
- Ki [1]: 15.5 nM
- IC50 [2]: 0.3 µM

SMILES: COc1ccc2nc(NC(=O)Nc3ccccc3N3CC4(CCN(CC(C)(C)C)CC4)c4c(F)ccc(O)c43)sc2c1 [Example 36, 1-(2-(4-Fluoro-7-hydroxy-1′-neopentylspiro[indoline-3,4′-piperidine]-1-yl)phenyl)-3-(6-methoxybenzo[d]thiazol-2-yl)urea]
- Ki [1]: 7.9 nM
- IC50 [2]: 0.9 µM

SMILES: CC(C)(C)CN1CCC2(CC1)CN(c1ccccc1NC(=O)Nc1nc3ccc(F)cc3s1)c1c(O)ccc(F)c12 [Example 32, 1-(2-(4-Fluoro-7-hydroxy-1′-neopentylspiro[indoline-3,4′-piperidine]-1-yl)phenyl)-3-(6-fluorobenzo[d]thiazol-2-yl)urea]
- Ki [1]: 7.4 nM
- IC50 [2]: 0.3 µM

From patent US9428504B2, “7-hydroxy-spiropipiperidine indolinyl antagonists of P2Y1 receptor” (BRISTOL-MYERS SQUIBB COMPANY, priority 2012, dated 2016)
